The subject of this test is CEM cells HIV-1 protection, formazan growth assay. Briefly: NCI AIDS Antiviral Assay. The following applies: for IC50: measured here: growth of uninfected CEM cells. In outline:
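Human CEM cells, uninfected and HIV-1-infected, received five drug concentrations, and growth was read by soluble formazan assay. Compounds giving at least 50% protection were retested; reproducible 100% protection defined confirmed active.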

Activity calls are given as the source filed them.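 How the source made its calls: active means compounds giving half or more protection of infected cells from virus-caused growth loss, again on retest; inactive means the rest.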

Among the data in PubChem BioAssay AID179 (DTP/NCI, 2004) are EC50, IC50 and outcome values, retold here.

What is called EC50 is the concentration giving half of the maximal effect. One may read the IC50 as the concentration at which inhibition is half-maximal.

Consider `CCCCCCCCCCCCC(F)C(=O)OCC1OC(n2cc(C)c(=O)[nH]c2=O)CC1N=[N+]=[N-]` (stereo not given), for which the EC50 is 0.0123 µM and the IC50 worked out at 102 µM. Consider `CC1C(c2ccccc2O)c2cc3c(cc2OC1N1CCCC1)OCO3` (stereo not given), for which the result was inactive. `O=C1/C(=C/c2ccccc2)CCCC12C(c1ccccc1)N2Cc1ccccc1` (stereo not given): the EC50 is greater than 200 µM and the IC50 was 7.41 µM. For `O=C(O)C1CCCCN1c1ccccc1[N+](=O)[O-]` (stereo not given), the result was inactive. Consider `NCCSSCC(N)C(=O)O` (stereo not given), for which the EC50 is greater than 58.9 µM and the IC50 was greater than 58.9 µM. For the compound `O=C(NS(=O)(=O)Nc1ccccc1)OCC1CCCCC1`, the EC50 is greater than 200 µM and the IC50 turned out to be 135 µM.

For `Cc1cnc(SCCN(C)C)nc1-c1cccs1`, the EC50 is greater than 891 µM and the IC50 stood at 22.4 µM. The corresponding values for `Cc1[cH-]c(=O)n(-c2ccccc2)n1.[Au+].[Au].c1ccc([PH+](c2ccccc2)c2ccccc2)cc1.c1ccc([PH+](c2ccccc2)c2ccccc2)cc1` are greater than 3.47 µM and greater than 3.47 µM. `CNc1cc2oc(=O)cc(C)c2cc1C`: the EC50 is greater than 67.6 µM and the IC50 was greater than 67.6 µM.

Consider `c1ccc(CN2CCC(=NN3CCCCC3)CC2)cc1`, for which the EC50 was greater than 200 µM and the IC50 worked out at 89.1 µM. Regarding `Cc1ccc(/C=C(\NC(=O)c2ccccc2)c2nc3ccccc3[nH]2)cc1`, the EC50 is greater than 74.1 µM and the IC50 was greater than 74.1 µM.

For `O=c1ccc2nc3cc(Br)ccc3sc-2c1`, the EC50 is greater than 24.5 µM and the IC50 was greater than 24.5 µM. In the case of `COc1ccc(C(=CCC(C)C2CCC3[C@@H]4C(OC(C)=O)CC5CC(OC(C)=O)CC[C@]5(C)C4CC(OC(C)=O)[C@]23C)c2ccc(OC)cc2)cc1` (stereo not given in full), the EC50 is greater than 200 µM and the IC50 was 95.5 µM. The like results for `NC(=O)c1n[nH]n(-c2ccccc2)c1=O` were, in that order, greater than 200 µM and greater than 200 µM. In the case of `CC(=O)OCC1OC(n2c3c(c(-c4ccco4)c(C#N)c2=S)CCCC3)C(OC(C)=O)C(OC(C)=O)C1OC(C)=O` (stereo not given), the EC50 is greater than 200 µM and the IC50 was 155 µM. Take `Cc1c(CN2CCN(C)CC2)c(CN2CCN(C)CC2)c(C)n1-c1ccc(Cl)cc1`: the EC50 is greater than 151 µM and the IC50 stood at 26.3 µM.

With `O=C(c1ccccc1)c1cn(/N=C\c2ccccc2)c(=O)nc1-c1ccccc1`, the outcome was inactive. Turning to `O=C(CNc1ccc(Cl)cc1)Nn1c(-c2ccccc2)nc2ccccc2c1=O`, the EC50 was greater than 200 µM and the IC50 was determined as 5.13 µM. Turning to `CO[C@H]1Nc2c(ccc(C)c2O)C(=O)N2C=C(/C=C/C(N)=O)C[C@@H]12`, the EC50 is greater than 759 µM and the IC50 was determined as 0.427 µM. Turning to `C=C1C(OO)O[C@@H]2O[C@@]3(C)CC[C@H]4[C@H](C)CC[C@@H]1[C@@]24O3` (stereo not given in full), the EC50 was greater than 200 µM and the IC50 came out at 27.5 µM. Consider `CCN1CCC(O)(c2ccc(C)cc2)C(C(=O)c2ccc(C)cc2)C1` (stereo not given), for which the EC50 is greater than 162 µM and the IC50 was 11.7 µM. For the compound `O=C(O)c1cscc1-c1cccc2ccccc12`, the EC50 is greater than 200 µM and the IC50 is 158 µM. For `COc1cc2c(c(O)c1OC)C(=O)[C@@H]1CCC(=O)N1C2c1ccccc1` (stereo not given in full), the EC50 is greater than 200 µM and the half-maximal inhibitory concentration (IC50) turned out to be 83.2 µM. As for `CCOC(=O)CNC(=O)CNC(=O)CNC(=O)CNNc1c(OCc2ccccc2)c(=O)c1=O`, the EC50 was greater than 200 µM and the IC50 is greater than 200 µM. In the case of `CCOc1ccc(C(CN2CCOCC2)C(C)=O)cc1OC` (stereo not given), the EC50 is greater than 724 µM and the IC50 is 1.95 µM. The corresponding values for `C1OC1CN1CCC(C2CCN(CC3CO3)CC2)CC1` (stereo not given) are greater than 200 µM and 0.269 µM. On to `COc1ccc(-c2ccccc2)c(N/N=C2\CCCNC2=O)c1`, for which the result was inactive.

In the case of `CC1Cc2c(nc3n(c2=O)CCCCC3)O1` (stereo not given), the EC50 is greater than 407 µM and the IC50 is greater than 407 µM. Turning to `COc1ccc(OC)c(-c2csc(=O)s2)c1`, the EC50 was greater than 269 µM and the IC50 was greater than 269 µM.

On to `CCOC(CCc1c(C)nc(NC(C)=O)[nH]c1=O)OCC`, for which the EC50 is greater than 200 µM and the IC50 was greater than 200 µM. With `CCOC(=O)N[C@H]1CCc2cc(OC)c(OC)c(OC)c2-c2ccc(SC)c(=O)cc21`, the EC50 was greater than 0.2 µM and the IC50 is 0.00123 µM.

For the compound `COC(C/C(=C/CO[Si](C(C)C)(C(C)C)C(C)C)C(=O)Nc1ccccc1I)OC`, the EC50 was greater than 200 µM and the IC50 was 40.7 µM.

For the compound `O=S(=O)(O)c1cc(N=Nc2ccc(O)cc2)ccc1/C=C/c1ccc(N=Nc2ccc(O)cc2)cc1S(=O)(=O)O`, the EC50 is greater than 50.1 µM and the IC50 is 45.7 µM. As to `Clc1cccc(C2ON=C(c3ccccc3)N2C23CC4CC(CC(C4)C2)C3)c1Cl` (stereo not given), the EC50 is greater than 200 µM and the half-maximal inhibitory concentration (IC50) was greater than 200 µM. Turning to `Cc1[nH]n(-c2nc3c(c(=O)[nH]2)CCCC3)c(=O)c1CCO`, the EC50 was greater than 200 µM and the IC50 turned out to be 129 µM. `Cc1nnc(Cc2ccccc2)c2n[nH]c(C)c12`: the EC50 was greater than 398 µM and the IC50 was 110 µM. As to `Cn1c2ccccc2c(=NNc2cccc(C(=O)O)c2)c2ccccc21`, the EC50 was greater than 200 µM and the IC50 was 3.8 µM.

Take `CCOC(=O)C1=NN(c2ccccc2)C2=CC(C)=NN(C)C(=S)N21`: the EC50 was greater than 200 µM and the IC50 is greater than 200 µM. As to `Cc1cccc2c(N)c3cccc(C(=O)NCCN(C)C)c3nc12`, the EC50 is greater than 200 µM and the IC50 was determined as 0.0631 µM.

Take `OCCN1CCN(CCCN2c3cc(Cl)ccc3Sc3ccsc32)CC1`: the EC50 is greater than 316 µM and the IC50 was 15.5 µM.

`O=C(C(/C=N/C(=S)NCc1ccccc1)=C(/O)c1ccccc1)c1ccccc1`: the EC50 was greater than 200 µM and the IC50 was 30.9 µM. Consider `Cc1ccc(N=N/C(=N/NC(=O)c2ccccc2)c2ccc(N(CCC#N)CCC#N)cc2C)cc1`, for which the EC50 is greater than 200 µM and the IC50 was 14.8 µM. With `N#CC1=C2Sc3ccccc3N2[C@H](c2ccccc2)[C@H]2COC(=O)[C@@H]12`, the EC50 was greater than 151 µM and the IC50 was 38 µM.

As to `c1ccc2nc([Se][Se]c3ccc4ccccc4n3)ccc2c1`, the EC50 was greater than 9.12 µM and the IC50 amounted to 4.17 µM.

On to `O=C1c2ccccc2C(=O)N1/N=C\c1ccc([N+](=O)[O-])cc1`, for which the EC50 was greater than 24.5 µM and the IC50 was greater than 24.5 µM. As for `COc1ccc(/C=C2\CCc3ccccc3C2=O)cc1OC`, the EC50 was greater than 33.9 µM and the IC50 was greater than 33.9 µM.

For the compound `O=C1CC(=O)NC(=NN2C(=O)/C(=C/c3ccccc3)N=C2c2ccccc2)N1`, the EC50 is greater than 200 µM and the IC50 was greater than 200 µM. In the case of `c1ccc2c(c1)SCCC2NC1=NCCO1` (stereo not given), the EC50 is greater than 200 µM and the IC50 came to 162 µM. As to `CCOC(=O)/C(=C/c1ccccn1)C(=O)c1ccccc1`, the EC50 is greater than 240 µM and the IC50 was 12.6 µM. Turning to `COc1cc(CNc2ccc(C(C)C)cc2)cc(OC)c1OC`, the EC50 was greater than 74.1 µM and the IC50 is 31.6 µM. For the compound `Clc1cccc(C2=NOC3COC4C=CC=CC4OCC23)c1` (stereo not given), the EC50 is greater than 58.9 µM and the IC50 was greater than 58.9 µM.

As for `CC1(C)CC(=O)C2=C(C1)OC1(CC2c2ccc(Cl)cc2)CC(c2ccc(Cl)cc2)C2=C(CC(C)(C)CC2=O)O1` (stereo not given), the EC50 was greater than 100 µM and the IC50 stood at 15.1 µM.
